Data on 3 compounds can be found in patent publication US20140227325A1, “LIGNIN-DERIVED POROUS CARBON COMPOSITION, METHODS OF PREPARATION, AND USE THEREOF” (UT-BATTELLE, LLC, priority 2013, published 2014).

A short description of series [1]: In-vitro drug release from loaded mesoporous carbon in SGF or SIF (UV-Vis), with kinetic and diffusivity analysis. It counts as physicochemical. As for the experimental part: (§1) The loaded mesoporous carbons were dried, the external surface cleaned, and then placed into 130 cm^3 of simulated gastric fluid without pepsin (SGF; 0.2% w/v NaCl, aqueous HCl, pH adjusted to ˜1.5) or into simulated intestinal fluid (SIF) at ambient temperature for 30-50 hours under mild stirring (˜60 rpm) for in-vitro drug release. The drug concentrations were measured by UV-Vis spectroscopy utilizing a calibration curve on absorbance at various concentrations of the drug in SGF or SIF medium.
In order to further investigate the diffusivity of the loaded drugs in the releasing media, Fick's laws of diffusion in spherical and cylindrical coordinates were utilized. Based on the assumption that drug-loaded mesoporous carbons are monolithic systems, the release profile in the spherical system can be mathematically expressed as (J. Siepmann, F. Siepmann, J., Controlled Release, 161 (2012) 351-362.):
versus t will yield the diffusivity values for both types of systems. […] As the centers of micelles are believed to give rise to the mesopores, and because the micelles are approximately spherical in shape, a distorted spherical to cylindrical entity could serve as the closest approximation of the pore geometry. Based on these assumptions, diffusivity values have been calculated from all the release patterns for both spherical and cylindrical systems.
versus t which also yields the diffusivity values of antipyrine from LMC-2 and PMC at three temperatures of 25° C., 35.5° C., and 50° C. Because of the surfactant templating, it was assumed that the mesopore geometries have a spherical to cylindrical shape, which became a basis for calculating the diffusivity values from each of the patterns in both cylindrical and spherical systems.
In order to provide further insight on the temperature dependence of diffusivity, calculations were made using the Eyring equation by assuming antipyrine diffusion from the pores of the carbons is an activation process,
where Eα is the activation energy.

A short description of series [2]: Drug loading amount by thermogravimetric analysis (TGA). In kind it is physicochemical. The settings on record: for Loading percent in LMC-2: drug loaded in LMC-2, TGA; for Loading percent in PMC: drug loaded in PMC, TGA. On the procedure: as §1
The drug loading amount in PMC and LMC-2 were measured with the help of thermogravimetric analysis (TGA). Pure mesoporous carbons, pure drugs, and drug-loaded carbons were heated under an inert atmosphere (N2) up to 1000° C., wherein the drug loading amount was calculated by comparing the relative amount of residues.

Series [3] is described as follows: N2 adsorption-desorption on drug-loaded mesoporous carbons (pore filling). In kind it is physicochemical. As for the experimental part:
In order to further investigate the occupancy of pore space by drug molecules, N2 adsorption-desorption experiments were performed on the drug-loaded mesoporous carbons, and the pore size distribution was calculated by the NLDFT method.

For series [4] the following is noted: cited from earlier work.
The mark [5] stands for this setting: from LMC-1, SGF, within around 60% of total drug release.

SMILES strings stand for the structures.

Consider `C[C@H](CS)C(=O)N1CCC[C@H]1C(=O)O` [Captopril], for which, in series [1] (LMC/SGF), the “Diffusivity, Cylindrical” value is given as 2 × 10^−22 m^2/s and the “Diffusivity, Spherical” value is given as 9 × 10^−23 m^2/s. In series [1] (PMC/SGF), the “Diffusivity, Cylindrical” value is listed as 2 × 10^−23 m^2/s and the “Diffusivity, Spherical” value is given as 7 × 10^−24 m^2/s. For the same compound, the “time to complete release” value in series [1] (from LMC, SGF) was under 20 h. In addition, in series [1] (setting [5]), the “order of release (Korsmeyer-Peppas equation)” value is listed as 0.42 and the “release rate constant (Korsmeyer-Peppas equation)” value was 3.9. The “time to complete release” value in series [1] (from PMC, SGF) was about 40 h. Also, in series [2], the “Loading percent in LMC-2” value was found to be 5% and the “Loading percent in PMC” value is 13%. Besides, in series [3] (PMC), the “pore filling by drug” value is recorded as “highest pore filling”.

Take `NS(=O)(=O)c1cc(C(=O)O)c(NCc2ccco2)cc1Cl` [Furosemide]: the “Diffusivity, Cylindrical” value is 6 × 10^−22 m^2/s in series [1] (LMC/SGF), 7 × 10^−23 m^2/s in series [1] (PMC/SGF) and 2 × 10^−23 m^2/s in series [1] (PMC/SIF). The “Diffusivity, Spherical” value is on record as 4 × 10^−22 m^2/s in series [1] (LMC/SGF), 4 × 10^−23 m^2/s in series [1] (PMC/SGF) and 1 × 10^−23 m^2/s in series [1] (PMC/SIF). Besides, in series [1] (SGF), the “initial burst, drug released within 1.5 hours” value turned out to be 60%. Also, the “time to complete release” value was “less than 10 hours” in series [1] (from LMC, SGF); 30 to 40 h in series [1] (from PMC, SGF); 30 to 40 h in series [1] (from PMC, SIF (pH ~6.8)). Moreover, the “order of magnitude of diffusivity” value in series [1] (release from LMC) is given as 10^−22 m^2/s; in series [1] (release from PMC in both SGF and SIF) it was 10^−23 m^2/s. For the same compound, the “Loading percent in LMC-2” value in series [2] was 6.6%. Besides, the “Loading percent in PMC” value in series [2] worked out at 6.7%. Besides, the “pore filling by drug” value in series [3] (both types of carbons (PMC, LMC-2)) is reported as “minimum pore filling”. Further, in series [4] (from mesoporous silica nanoparticles, pH range 5.5 to 7.4), the release completed entry is reported as “less than 100 minutes”.

`Cc1cc(=O)n(-c2ccccc2)n1C` [Antipyrine]: in series [2], the “Loading percent in LMC-2” value stood at 12% and the “Loading percent in PMC” value is on record as 22%. Further, the completion of release in series [4] (from porous silica) is 300 min.
